In brackets after ≈: the same amount, converted by molar mass.
test system: Susceptible (H37Rv) strain of Mycobacterium tuberculosis; test: Resazurin Microplate Assay (REMA), anti-tubercular activity, H37Rv; assay type: cell-based; settings: 192 h, read-out: MIC Susceptible (H37Rv)

In order of falling MIC:
1. COc1ccc(Cl)cc1-n1ncc(-c2nnc(-c3ccc(Br)c(C)c3)o2)c1C [Compound 7f, 2-(4-Bromo-3-methylphenyl)-5-(1-(5-chloro-2-methoxyphenyl)-5-methyl-1H-pyrazol-4-yl)-1,3,4-oxadiazole]  32 µg/mL (≈ 69.6 µM)
2. COc1ccc(Cl)cc1-n1ncc(-c2nnc(-c3ccc(C)c([N+](=O)[O-])c3)o2)c1C [Compound 7j, 2-(1-(5-Chloro-2-methoxyphenyl)-5-methyl-1H-pyrazol-4-yl)-5-(4-methyl-3-nitrophenyl)-1,3,4-oxadiazole]  32 µg/mL (≈ 75.1 µM)
3. COc1ccc(Cl)cc1-n1ncc(-c2nnc(-c3ccc(C)c(Br)c3)o2)c1C [Compound 7c, 2-(3-Bromo-4-methylphenyl)-5-(1-(5-chloro-2-methoxyphenyl)-5-methyl-1H-pyrazol-4-yl)-1,3,4-oxadiazole]  16 µg/mL (≈ 34.8 µM)
4. COc1ccc(Cl)cc1-n1ncc(-c2nnc(-c3ccccc3)o2)c1C [Compound 7d, 2-(1-(5-Chloro-2-methoxyphenyl)-5-methyl-1H-pyrazol-4-yl)-5-phenyl-1,3,4-oxadiazole]  16 µg/mL (≈ 43.6 µM)
5. COc1ccc(Cl)cc1-n1ncc(-c2nnc(-c3ccc(Cl)c(Cl)c3)o2)c1C [Compound 7i, 2-(1-(5-Chloro-2-methoxyphenyl)-5-methyl-1H-pyrazol-4-yl)-5-(3,4-dichlorophenyl)-1,3,4-oxadiazole]  16 µg/mL (≈ 36.7 µM)
6. COc1ccc(Cl)cc1-n1ncc(-c2nnc(-c3ccc(Br)cc3)o2)c1C [Compound 7e, 2-(4-Bromophenyl)-5-(1-(5-chloro-2-methoxyphenyl)-5-methyl-1H-pyrazol-4-yl)-1,3,4-oxadiazole]  8 µg/mL (≈ 17.9 µM)
7. COc1ccc(Cl)cc1-n1ncc(-c2nnc(-c3cccc(F)c3)o2)c1C [Compound 7g, 2-(1-(5-Chloro-2-methoxyphenyl)-5-methyl-1H-pyrazol-4-yl)-5-(3-fluorophenyl)-1,3,4-oxadiazole]  8 µg/mL (≈ 20.8 µM)
8. COc1ccc(Cl)cc1-n1ncc(-c2nnc(-c3ccc(Cl)cc3)o2)c1C [Compound 7a, 2-(1-(5-Chloro-2-methoxyphenyl)-5-methyl-1H-pyrazol-4-yl)-5-(4-chlorophenyl)-1,3,4-oxadiazole]  4 µg/mL (≈ 9.97 µM)
9. COc1ccc(Cl)cc1-n1ncc(-c2nnc(-c3ccc(F)cc3)o2)c1C [Compound 7b, 2-(1-(5-Chloro-2-methoxyphenyl)-5-methyl-1H-pyrazol-4-yl)-5-(4-fluorophenyl)-1,3,4-oxadiazole]  4 µg/mL (≈ 10.4 µM)
10. COc1ccc(Cl)cc1-n1ncc(-c2nnc(-c3cc(Cl)cc(Cl)c3)o2)c1C [Compound 7h, 2-(1-(5-Chloro-2-methoxyphenyl)-5-methyl-1H-pyrazol-4-yl)-5-(3,5-dichlorophenyl)-1,3,4-oxadiazole]  4 µg/mL (≈ 9.18 µM)
